Laboratory results taken from US6358885B1, “Substituted phenylheterocyclic herbicides” (Mississippi State University, priority 1992, dated 2002).

Key:
[1] = tested on: sugar beet; assay: Test C preemergence/postemergence greenhouse plant response rating 0 to 100; type: in vivo, Beta vulgaris; conditions: POSTEMERGENCE; for Plant response rating, Sugar beet: 0 to 100 scale
Summary of the method: (§1)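 Compounds in non-phytotoxic solvent applied preemergence to sandy loam one day after planting, postemergence at the 1–4 leaf stage, or to ~2.5 cm floodwater over silt loam.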

[2] = tested on: barnyardgrass; assay: Test B preemergence/postemergence greenhouse plant response rating 0 to 10; type: in vivo, Echinochloa crus-galli; conditions: 0 to 10 scale
Summary of the method: (§2)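 Postemergence treatment of plants two to eighteen cm tall ran alongside preemergence treatment of planted seed, each using compound in a non-phytotoxic solvent.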

[3] = tested on: wild oat; assay: Test C preemergence/postemergence greenhouse plant response rating 0 to 100; type: in vivo, Avena fatua; conditions: POSTEMERGENCE; for Plant response rating, Wild oat: 0 to 100 scale
Summary of the method: as §1

[4] = tested on: bedstraw; assay: as above; type: in vivo, Galium aparine; conditions: POSTEMERGENCE; for Plant response rating, Bedstraw: 0 to 100 scale
Summary of the method: as §1

[5] = tested on: umbrella sedge; assay: Test C flood test plant response rating 0 to 100; type: in vivo, Cyperus difformis; conditions: for Plant response rating (0 to 100), Umbrella sedge: under POSTEMERGENCE head (flood test species); for Plant response rating Umbrella sedge: flood test species listed under POSTEMERGENCE, 0 to 100 scale
Summary of the method: as §1

[6] = tested on: chickweed; assay: Test B preemergence/postemergence greenhouse plant response rating 0 to 10; type: in vivo, Stellaria media; conditions: 0 to 10 scale
Summary of the method: as §2

[7] = tested on: rape; assay: as above; type: in vivo, Brassica napus; conditions: 0 to 10 scale
Summary of the method: as §2

[8] = tested on: downy brome; assay: Test C preemergence/postemergence greenhouse plant response rating 0 to 100; type: in vivo, Bromus tectorum; conditions: POSTEMERGENCE; for Plant response rating Downy Brome: 0 to 100 scale
Summary of the method: as §1

[9] = tested on: wild buckwheat; assay: Test B preemergence/postemergence greenhouse plant response rating 0 to 10; type: in vivo, Polygonum convolvulus; conditions: 0 to 10 scale
Summary of the method: as §2

[10] = tested on: ryegrass; assay: Test C preemergence/postemergence greenhouse plant response rating 0 to 100; type: in vivo, Lolium multiflorum; conditions: POSTEMERGENCE; for Plant response rating Ryegrass: 0 to 100 scale
Summary of the method: as §1

[11] = tested on: corn; assay: as above; type: in vivo, Zea mays; conditions: POSTEMERGENCE; for Plant response rating, Corn: 0 to 100 scale
Summary of the method: as §1

[12] = tested on: crabgrass; assay: as above; type: in vivo, Digitaria sanguinalis; conditions: POSTEMERGENCE; for Plant response rating, Crabgrass: 0 to 100 scale
Summary of the method: as §1

**Q.** What does the source list for `CCOC(=O)COc1cc(-c2nn3c(c2Cl)CCCC3)c(F)cc1Cl` [Compound 42]?
**A.** Plant response rating, Sugar beet ([1]; 62 g/ha): 100; Plant response rating, Sugar beet ([1]; 125 g/ha): 100; Plant response rating (0 to 100), Sugar beet ([1]; Rate 16 g/ha): 100; Plant response rating (0 to 100), Sugar beet ([1]; Rate 31 g/ha): 100; Plant response rating, Barnyardgrass ([2]; POSTEMERGENCE, Rate 50 g/ha): 5; Plant response rating, Barnyardgrass ([2]; POSTEMERGENCE, Rate 200 g/ha): 8; Plant response rating, Barnyardgrass ([2]; PREEMERGENCE, Rate 50 g/ha): 0; Plant response rating, Barnyardgrass ([2]; Rate 200 g/ha, PREEMERGENCE): 0; Plant response rating, Wild oat ([3]; 62 g/ha): 30; Plant response rating, Wild oat ([3]; 125 g/ha): 30; Plant response rating (0 to 100), Wild oat ([3]; Rate 16 g/ha): 10; Plant response rating (0 to 100), Wild oat ([3]; Rate 31 g/ha): 10; Plant response rating, Bedstraw ([4]; 62 g/ha): 100; Plant response rating, Bedstraw ([4]; 125 g/ha): 100; Plant response rating (0 to 100), Bedstraw ([4]; Rate 16 g/ha): 80; Plant response rating (0 to 100), Bedstraw ([4]; Rate 31 g/ha): 90; Plant response rating (0 to 100), Umbrella sedge ([5]; Rate 16 g/ha): 0; Plant response rating (0 to 100), Umbrella sedge ([5]; Rate 31 g/ha): 10; Plant response rating Umbrella sedge ([5]; 62 g/ha): 70; Plant response rating Umbrella sedge ([5]; 125 g/ha): 90; Plant response rating, Chickweed ([6]; POSTEMERGENCE, Rate 50 g/ha): 4; Plant response rating, Chickweed ([6]; POSTEMERGENCE, Rate 200 g/ha): 8; Plant response rating, Chickweed ([6]; PREEMERGENCE, Rate 50 g/ha): 0; Plant response rating, Chickweed ([6]; Rate 200 g/ha, PREEMERGENCE): 0; Plant response rating, Rape ([7]; POSTEMERGENCE, Rate 50 g/ha): 9; Plant response rating, Rape ([7]; PREEMERGENCE, Rate 50 g/ha): 2; Plant response rating, Rape ([7]; Rate 200 g/ha, POSTEMERGENCE): 10; Plant response rating, Rape ([7]; Rate 200 g/ha, PREEMERGENCE): 3; Plant response rating Downy Brome ([8]; 62 g/ha): 30; Plant response rating Downy Brome ([8]; 125 g/ha): 50; Plant response rating (0 to 100), Downy Brome ([8]; Rate 16 g/ha): 20; Plant response rating (0 to 100), Downy Brome ([8]; Rate 31 g/ha): 30; Plant response rating, Wild buckwheat ([9]; POSTEMERGENCE, Rate 50 g/ha): 9; Plant response rating, Wild buckwheat ([9]; PREEMERGENCE, Rate 50 g/ha): 0; Plant response rating, Wild buckwheat ([9]; Rate 200 g/ha, POSTEMERGENCE): 9; Plant response rating, Wild buckwheat ([9]; Rate 200 g/ha, PREEMERGENCE): 7; Plant response rating Ryegrass ([10]; 62 g/ha): 30; Plant response rating Ryegrass ([10]; 125 g/ha): 40; Plant response rating (0 to 100), Ryegrass ([10]; Rate 16 g/ha): 10; Plant response rating (0 to 100), Ryegrass ([10]; Rate 31 g/ha): 20; Plant response rating, Corn ([11]; 62 g/ha): 40; Plant response rating, Corn ([11]; 125 g/ha): 40; Plant response rating (0 to 100), Corn ([11]; Rate 16 g/ha): 20; Plant response rating (0 to 100), Corn ([11]; Rate 31 g/ha): 30; Plant response rating, Crabgrass ([12]; 62 g/ha): 10; Plant response rating, Crabgrass ([12]; 125 g/ha): 40; Plant response rating (0 to 100), Crabgrass ([12]; Rate 16 g/ha): 10; Plant response rating (0 to 100), Crabgrass ([12]; Rate 31 g/ha): 10

**Q.** Which “Plant response rating, Sugar beet” value ([1]; 62 g/ha) does the source give for `C=C(Cl)COc1cc(-c2nn3c(c2Cl)CCCC3)c(F)cc1Cl` [Compound 40] here?
**A.** Its value is 100.

**Q.** And the “Plant response rating, Sugar beet” value ([1]; 125 g/ha)?
**A.** The value was 100.

**Q.** And the “Plant response rating (0 to 100), Sugar beet” value ([1]; Rate 16 g/ha)?
**A.** Its value is 100.

**Q.** And the “Plant response rating (0 to 100), Sugar beet” value ([1]; Rate 31 g/ha)?
**A.** Its value is 100.

**Q.** What about the “Plant response rating, Barnyardgrass” value ([2]; POSTEMERGENCE, Rate 50 g/ha) of the same compound?
**A.** The value was 4.

**Q.** What about the “Plant response rating, Barnyardgrass” value ([2]; POSTEMERGENCE, Rate 200 g/ha) of the same compound?
**A.** The value was 4.

**Q.** What about the “Plant response rating, Barnyardgrass” value ([2]; PREEMERGENCE, Rate 50 g/ha) of the same compound?
**A.** Its value is 1.

**Q.** And the “Plant response rating, Barnyardgrass” value ([2]; Rate 200 g/ha, PREEMERGENCE)?
**A.** The value was 3.

**Q.** And the “Plant response rating, Wild oat” value ([3]; 62 g/ha)?
**A.** Its value is 30.

**Q.** And the “Plant response rating, Wild oat” value ([3]; 125 g/ha)?
**A.** Its value is 40.

**Q.** And the “Plant response rating (0 to 100), Wild oat” value ([3]; Rate 16 g/ha)?
**A.** Its value is 20.

**Q.** And the “Plant response rating (0 to 100), Wild oat” value ([3]; Rate 31 g/ha)?
**A.** Its value is 20.

**Q.** What about the “Plant response rating, Bedstraw” value ([4]; 125 g/ha) of the same compound?
**A.** The value was 60.

**Q.** And the “Plant response rating (0 to 100), Bedstraw” value ([4]; Rate 16 g/ha)?
**A.** Its value is 30.

**Q.** And the “Plant response rating (0 to 100), Bedstraw” value ([4]; Rate 31 g/ha)?
**A.** Its value is 30.

**Q.** And the “Plant response rating (0 to 100), Umbrella sedge” value ([5]; Rate 16 g/ha)?
**A.** Its value is 0.

**Q.** And the “Plant response rating (0 to 100), Umbrella sedge” value ([5]; Rate 31 g/ha)?
**A.** The value was 0.

**Q.** And the “Plant response rating Umbrella sedge” value ([5]; 62 g/ha)?
**A.** Its value is 10.

**Q.** And the “Plant response rating Umbrella sedge” value ([5]; 125 g/ha)?
**A.** Its value is 70.

**Q.** And the “Plant response rating, Chickweed” value ([6]; POSTEMERGENCE, Rate 50 g/ha)?
**A.** Its value is 10.

**Q.** And the “Plant response rating, Chickweed” value ([6]; POSTEMERGENCE, Rate 200 g/ha)?
**A.** The value was 10.

**Q.** And the “Plant response rating, Chickweed” value ([6]; PREEMERGENCE, Rate 50 g/ha)?
**A.** Its value is 0.

**Q.** What about the “Plant response rating, Chickweed” value ([6]; Rate 200 g/ha, PREEMERGENCE) of the same compound?
**A.** The value was 5.

**Q.** And the “Plant response rating, Rape” value ([7]; POSTEMERGENCE, Rate 50 g/ha)?
**A.** The value was 4.

**Q.** And the “Plant response rating, Rape” value ([7]; PREEMERGENCE, Rate 50 g/ha)?
**A.** The value was 8.

**Q.** What about the “Plant response rating, Rape” value ([7]; Rate 200 g/ha, POSTEMERGENCE) of the same compound?
**A.** Its value is 8.

**Q.** And the “Plant response rating, Rape” value ([7]; Rate 200 g/ha, PREEMERGENCE)?
**A.** Its value is 6.

**Q.** And the “Plant response rating Downy Brome” value ([8]; 62 g/ha)?
**A.** The value was 50.

**Q.** And the “Plant response rating Downy Brome” value ([8]; 125 g/ha)?
**A.** The value was 60.

**Q.** What about the “Plant response rating (0 to 100), Downy Brome” value ([8]; Rate 16 g/ha) of the same compound?
**A.** The value was 30.

**Q.** And the “Plant response rating (0 to 100), Downy Brome” value ([8]; Rate 31 g/ha)?
**A.** Its value is 40.

**Q.** What about the “Plant response rating, Wild buckwheat” value ([9]; POSTEMERGENCE, Rate 50 g/ha) of the same compound?
**A.** Its value is 9.

**Q.** And the “Plant response rating, Wild buckwheat” value ([9]; Rate 200 g/ha, POSTEMERGENCE)?
**A.** The value was 10.

**Q.** What about the “Plant response rating, Wild buckwheat” value ([9]; Rate 200 g/ha, PREEMERGENCE) of the same compound?
**A.** Its value is 9.

**Q.** What about the “Plant response rating Ryegrass” value ([10]; 62 g/ha) of the same compound?
**A.** Its value is 30.

**Q.** And the “Plant response rating Ryegrass” value ([10]; 125 g/ha)?
**A.** Its value is 40.

**Q.** What about the “Plant response rating (0 to 100), Ryegrass” value ([10]; Rate 16 g/ha) of the same compound?
**A.** Its value is 10.

**Q.** What about the “Plant response rating (0 to 100), Ryegrass” value ([10]; Rate 31 g/ha) of the same compound?
**A.** The value was 20.

**Q.** And the “Plant response rating, Corn” value ([11]; 62 g/ha)?
**A.** Its value is 30.

**Q.** And the “Plant response rating, Corn” value ([11]; 125 g/ha)?
**A.** Its value is 30.

**Q.** And the “Plant response rating (0 to 100), Corn” value ([11]; Rate 16 g/ha)?
**A.** The value was 30.

**Q.** What about the “Plant response rating (0 to 100), Corn” value ([11]; Rate 31 g/ha) of the same compound?
**A.** Its value is 30.

**Q.** What about the “Plant response rating, Crabgrass” value ([12]; 62 g/ha) of the same compound?
**A.** Its value is 10.

**Q.** And the “Plant response rating, Crabgrass” value ([12]; 125 g/ha)?
**A.** The value was 10.

**Q.** What about the “Plant response rating (0 to 100), Crabgrass” value ([12]; Rate 16 g/ha) of the same compound?
**A.** The value was 10.

**Q.** What about the “Plant response rating (0 to 100), Crabgrass” value ([12]; Rate 31 g/ha) of the same compound?
**A.** The value was 10.
